Laboratory results from patent US20240376085A1 (Janssen Pharmaceutica NV, priority 2021, published 2024).

Legend:
[1] = system: IL-17A-induced G-CSF production in human normal keratinocyte (NHK); experiment: NHK assay: IL-17A-induced G-CSF production in normal human keratinocytes; assay type: cell-based; conditions: 24 h, IL-17A 5 ng/mL, average if tested more than once
Summary of the method: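 IC50 derives from G-CSF in supernatants, quantified by HTRF from a standard curve, with CellTiter-Glo viability compared to DMSO control. Before a 24 h, 37°C culture of normal human keratinocytes at 3000–4000 cells/well, compound dilutions were preincubated 1 h at rt with human IL-17A (5 ng/mL final), with 0.2% DMSO and 5% FBS.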

[2] = biological target: T1, IL-17A : IL-17RA binding (Homo sapiens, UniProt Q16552, K93Q); experiment: IL-17A(FLAG-tagged):IL-17RA(His-tagged) binding disruption Eu-HTRF assay, Protocol 1; conditions: FLAG-IL-17A 2.5 nM at 2x final concentration; average if tested more than once
T1 construct: Name: IL-17A-Flag
T1 sequence (Q16552 with tags, fused parts or gaps K93Q): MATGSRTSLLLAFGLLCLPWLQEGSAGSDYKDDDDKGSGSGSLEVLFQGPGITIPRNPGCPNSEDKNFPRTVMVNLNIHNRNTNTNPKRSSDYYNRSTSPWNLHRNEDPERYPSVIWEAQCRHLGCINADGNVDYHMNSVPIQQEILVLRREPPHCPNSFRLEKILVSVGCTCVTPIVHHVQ
Summary of the method: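 IC50 came from a one-site competition fit of the acceptor/donor (665/620 nm) HTRF ratio. His-tagged IL-17RA, Eu-anti-FLAG and D2-anti-His were added after a 1 h rt compound preincubation with FLAG-tagged IL-17A dimer in PBS/0.01% Triton X-100, followed by 2 h at rt before reading.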

SMILES | IC50 [2] | IC50 ([1]; Homo sapiens, Keratinocyte) | IC50 [1]
CC(C)c1c(C(=O)NC(CC(C)(C)C(F)(F)F)c2nc3cc([C@@H](C)NC(=O)CCC(F)(F)F)ccc3[nH]2)no[n+]1[O-] (single isomer, unassigned) [Example 56, 3-Isopropyl-4-(((S*)-4,4,4-trifluoro-3,3-dimethyl-1-(5-((R)-1-(4,4,4-trifluorobutanamido)ethyl)-1H-benzo[d]imidazol-2-yl)butyl)carbamoyl)-1,2,5-oxadiazole 2-oxide] | 50 to 100 nM | 50 to 100 nM | 
C[C@@H](NC(=O)CCC(F)(F)F)c1ccc2[nH]c([C@@H](NC(=O)c3cn(CC4CCC4)nc3C#N)C3CCC(F)(F)CC3)nc2c1 [Example 88, 3-Cyano-1-(cyclobutylmethyl)-N—((S)-(4,4-difluorocyclohexyl)(5-((R)-1-(4,4,4-trifluorobutanamido)ethyl)-1H-benzo[d]imidazol-2-yl)methyl)-1H-pyrazole-4-carboxamide] | > 100 nM | > 100 nM | 
C[C@@H](NC(=O)CCC(F)(F)F)c1ccc2[nH]c([C@@H](NC(=O)C3(C(F)(F)F)CC3)C3CCC(F)(F)CC3)nc2c1 [Example 97, N—((S)-(4,4-Difluorocyclohexyl)(5-((R)-1-(4,4,4-trifluorobutanamido)ethyl)-1H-benzo[d]imidazol-2-yl)methyl)-1-(trifluoromethyl)cyclopropane-1-carboxamide] | > 100 nM | > 100 nM | 
C[C@@H](NC(=O)CCC(F)(F)F)c1ccc2[nH]c([C@@H](NC(=O)[C@@H]3C[C@H]3C#N)C3CCC(F)(F)CC3)nc2c1 (relative stereo) [Example 104, trans-(1R*,2R*)-2-Cyano-N—((S)-(4,4-difluorocyclohexyl)(5-((R)-1-(4,4,4-trifluorobutanamido)ethyl)-1H-benzo[d]imidazol-2-yl)methyl)cyclopropane-1-carboxamide] | > 100 nM | > 100 nM | 
C[C@@H](NC(=O)CCC(F)(F)F)c1ccc2[nH]c([C@@H](NC(=O)c3ncn(CCC(F)F)n3)C3CCC(F)(F)CC3)nc2c1 [Example 40, N—[(S)-(4,4-Difluorocyclohexyl)-[6-[(1R)-1-(4,4,4-trifluorobutanoylamino)ethyl]-1H-benzimidazol-2-yl]methyl]-1-(3,3-difluoropropyl)-1,2,4-triazole-3-carboxamide] | > 100 nM | > 100 nM | 
C[C@@H](NC(=O)CCC(F)(F)F)c1ccc2[nH]c([C@@H](NC(=O)c3cnn(CC45CC(C#N)(C4)C5)n3)C3CCC(F)(F)CC3)nc2c1 [Example 78, 2-((3-Cyanobicyclo[1.1.1]pentan-1-yl)methyl)-N—((S)-(4,4-difluorocyclohexyl)(5-((R)-1-(4,4,4-trifluorobutanamido)ethyl)-1H-benzo[d]imidazol-2-yl)methyl)-2H-1,2,3-triazole-4-carboxamide] | > 100 nM | > 100 nM | 
CC(Cn1ncc(C(=O)N[C@H](c2nc3ccc([C@@H](C)NC(=O)CCC(F)(F)F)cc3[nH]2)C2CCC(F)(F)CC2)n1)C(F)(F)F (single isomer, unassigned) [Example 70, N—((S)-(4,4-Difluorocyclohexyl)(6-((R)-1-(4,4,4-trifluorobutanamido)ethyl)-1H-benzo[d]imidazol-2-yl)methyl)-2-((S*)-3,3,3-trifluoro-2-methylpropyl)-2H-1,2,3-triazole-4-carboxamide] | > 100 nM |  | > 100 nM
C[C@@H](OC[C@H](NC(=O)c1nonc1C1CC1)c1nc2ccc([C@H](NC(=O)CC3CC(F)(F)C3)C3CC3)cc2[nH]1)C(F)(F)F (relative stereo) [Example 155, 4-Cyclopropyl-N—((R*)-1-(6-((R)-cyclopropyl(2-(3,3-difluorocyclobutyl)acetamido)methyl)-1H-benzo[d]imidazol-2-yl)-2-(((R)-1,1,1-trifluoropropan-2-yl)oxy)ethyl)-1,2,5-oxadiazole-3-carboxamide] | < 50 nM | > 100 nM | 

More lines, main results first:

IC50 [2] | SMILES | IC50 ([1]; Homo sapiens, Keratinocyte) | IC50 [1]
50 to 100 nM | CC(C)n1nccc1C(=O)N[C@H](c1nc2ccc([C@H](NC(=O)CC3CC(F)(F)C3)C3CC3)cc2[nH]1)[C@H]1C[C@@H]2[C@H](C1)C2(F)F [Example 241, N—((S)-(6-((R)-Cyclopropyl(2-(3,3-difluorocyclobutyl)acetamido)methyl)-1H-benzo[d]imidazol-2-yl)((1R,3r,5S)-6,6-difluorobicyclo[3.1.0]hexan-3-yl)methyl)-1-isopropyl-1H-pyrazole-5-carboxamide] | < 50 nM | 
50 to 100 nM | C[C@@H](NC(=O)CCC(F)(F)F)c1ccc2[nH]c([C@@H](NC(=O)c3ncnn3CCC(F)(F)F)C3CCC(F)(F)CC3)nc2c1 [Example 220, N—((S)-(4,4-Difluorocyclohexyl)(5-((R)-1-(4,4,4-trifluorobutanamido)ethyl)-1H-benzo[d]imidazol-2-yl)methyl)-1-(3,3,3-trifluoropropyl)-1H-1,2,4-triazole-5-carboxamide] | > 100 nM | 
< 50 nM | CC(C)(OC[C@H](NC(=O)c1nonc1C1CC1)c1nc2ccc([C@H](NC(=O)CC3CC(F)(F)C3)C3CC3)cc2[nH]1)C(F)(F)F [Example 159, 4-Cyclopropyl-N—((R)-1-(6-((R)-cyclopropyl(2-(3,3-difluorocyclobutyl)acetamido)methyl)-1H-benzo[d]imidazol-2-yl)-2-((1,1,1-trifluoro-2-methylpropan-2-yl)oxy)ethyl)-1,2,5-oxadiazole-3-carboxamide] | < 50 nM | 
< 50 nM | Cc1nonc1C(=O)N[C@H](c1nc2ccc([C@H](NC(=O)CC3CC(F)(F)C3)C3CC3)cc2[nH]1)[C@@H]1C[C@H]2C[C@H]2C1 [Example 254, N—((S)-((1R,3s,5S)-Bicyclo[3.1.0]hexan-3-yl)(6-((R)-cyclopropyl(2-(3,3-difluorocyclobutyl)acetamido)methyl)-1H-benzo[d]imidazol-2-yl)methyl)-4-methyl-1,2,5-oxadiazole-3-carboxamide] | > 100 nM | 
50 to 100 nM | Cc1nonc1C(=O)N[C@@H](CC(C)(C)C(F)(F)F)c1nc2ccc([C@H](NC(=O)CC(C)C(F)(F)F)C3CC3)cc2[nH]1 (single isomer, unassigned) [Example 180, N—((S)-1-(6-((R)-Cyclopropyl((S*)-4,4,4-trifluoro-3-methylbutanamido)methyl)-1H-benzo[d]imidazol-2-yl)-4,4,4-trifluoro-3,3-dimethylbutyl)-4-methyl-1,2,5-oxadiazole-3-carboxamide] |  | > 100 nM
> 100 nM | Cc1nonc1C(=O)N[C@@H](c1nc2ccc([C@H](NC(=O)CC3CC(F)(F)C3)C3CC3)cc2[nH]1)[C@@H]1CCCCO1 (relative stereo) [Example 249, N—((S*)-(6-((R)-Cyclopropyl(2-(3,3-difluorocyclobutyl)acetamido)methyl)-1H-benzo[d]imidazol-2-yl)((S*)-tetrahydro-2H-pyran-2-yl)methyl)-4-methyl-1,2,5-oxadiazole-3-carboxamide] | > 100 nM | 
< 50 nM | O=C(CC1CC(F)(F)C1)N[C@@H](c1ccc2nc([C@@H](NC(=O)c3nonc3C3CC3)[C@H]3CCCC(F)(F)C3)[nH]c2c1)C1CC1 [Example 170, 4-Cyclopropyl-N—((S)-(6-((R)-cyclopropyl(2-(3,3-difluorocyclobutyl)acetamido)methyl)-1H-benzo[d]imidazol-2-yl)((S)-3,3-difluorocyclohexyl)methyl)-1,2,5-oxadiazole-3-carboxamide] | < 50 nM | 
> 100 nM | C[C@@H](NC(=O)CCC(F)(F)F)c1ccc2[nH]c([C@@H](NC(=O)c3ncn(CCC(F)(F)F)n3)C3CCC(F)(F)CC3)nc2c1 [Example 228, N—((S)-(4,4-Difluorocyclohexyl)(5-((R)-1-(4,4,4-trifluorobutanamido)ethyl)-1H-benzo[d]imidazol-2-yl)methyl)-1-(3,3,3-trifluoropropyl)-1H-1,2,4-triazole-3-carboxamide] | > 100 nM | 
50 to 100 nM | Cc1nonc1C(=O)N[C@@H](CC(C)(C)C(F)(F)F)c1nc2ccc([C@H](NC(=O)CC3CC3(F)F)C3CC3)cc2[nH]1 (single isomer, unassigned) [Example 184, N—((S)-1-(6-((R)-Cyclopropyl(2-((S*)-2,2-difluorocyclopropyl)acetamido)methyl)-1H-benzo[d]imidazol-2-yl)-4,4,4-trifluoro-3,3-dimethylbutyl)-4-methyl-1,2,5-oxadiazole-3-carboxamide] |  | > 100 nM
> 100 nM | C[C@@H](NC(=O)CCC(F)(F)F)c1ccc2[nH]c(C(CC(C)(C)C(F)(F)F)NC(=O)c3ncnn3CC3CC3)nc2c1 (single isomer, unassigned) [Example 195, 1-(Cyclopropylmethyl)-N—((S*)-4,4,4-trifluoro-3,3-dimethyl-(5-((R)-1-(4,4,4-trifluorobutanamido)ethyl)-1H-benzo[d]imidazol-2-yl)butyl)-1H-1,2,4-triazole-5-carboxamide] | > 100 nM | 
< 50 nM | Cc1nonc1C(=O)N[C@H](c1nc2ccc([C@H](NC(=O)CC3CC(F)(F)C3)C3CC3)cc2[nH]1)[C@H]1C[C@@H]2[C@H](C1)C2(F)F [Example 240, N—((S)-(6-((R)-Cyclopropyl(2-(3,3-difluorocyclobutyl)acetamido)methyl)-1H-benzo[d]imidazol-2-yl)((1R,3r,5S)-6,6-difluorobicyclo[3.1.0]hexan-3-yl)methyl)-4-methyl-1,2,5-oxadiazole-3-carboxamide] | > 100 nM | 
